The NIST ThermoML archive (doi:10.1021/je300630u)

Tests used:
[1] = refractive index (other wavelength) (dimensionless); conditions: 101 kPa, Liquid, Wavelength=632.8 nm, Standard Abbe refractometry
[2] = refractive index (other wavelength) (dimensionless); xn = mol fraction of the nth substance listed; conditions: 295.84 K, 101.3 kPa, Liquid, Wavelength=632.8 nm, Standard Abbe refractometry

N#Cc1ccccc1 [benzonitrile]
[1]
Conditions | refractive index
293.37 K | 1.5252
293.99 K | 1.5249
294.53 K | 1.5247
295.09 K | 1.5243
295.66 K | 1.5241
295.84 K | 1.5239
296.11 K | 1.5238
296.8 K | 1.5236
297.15 K | 1.5233
297.91 K | 1.523
298.2 K | 1.5228
298.8 K | 1.5225
298.83 K | 1.5226
299.26 K | 1.5223
300.06 K | 1.5219
300.12 K | 1.5219
300.31 K | 1.5218
301.13 K | 1.5214
301.23 K | 1.5214
301.35 K | 1.5213
302.26 K | 1.5209
302.31 K | 1.5209
302.42 K | 1.5208
303.41 K | 1.5203
304.49 K | 1.5198
305.64 K | 1.5192
306.89 K | 1.5186
307.88 K | 1.5181

N#Cc1ccccc1 [benzonitrile] + CCCCCCCCCCCCC
[2]
Conditions | refractive index
x1 = 0.1148 | 1.428
x1 = 0.2007 | 1.4323
x1 = 0.3192 | 1.439
x1 = 0.3935 | 1.4443
x1 = 0.5 | 1.4525
x1 = 0.6113 | 1.4629
x1 = 0.7078 | 1.4738
x1 = 0.8007 | 1.4865
x1 = 0.9009 | 1.5032
x1 = 1 | 1.5239

CCCCCCCCCCCCC [tridecane]
[1]
Conditions | refractive index
293.2 K | 1.4244
294.26 K | 1.4239
295.29 K | 1.4234
295.84 K | 1.4231
296.33 K | 1.423
297.35 K | 1.4225
298.37 K | 1.4221
299.42 K | 1.4216
300.39 K | 1.4212
301.47 K | 1.4207

CCCCCCCCCCCCC [tridecane] + N#Cc1ccccc1
Conditions | refractive index
[2], x2 = 0 | 1.4231
